In test [1] the test system is A549. The test is described as follows: Cytotoxicity against Homo sapiens (human) A549 cells assessed as growth inhibition after 48 hr by MTT assay. It counts as functional, cell-based. To be noted: A549, 48 h. (In general: Tetrazolium dyes change colour on reduction, which living cells bring about.)
Test [2] concerns SK-N-SH. The experiment in a line: Cytotoxicity against Homo sapiens (human) SK-N-SH cells assessed as growth inhibition after 48 hr by MTT assay. It is filed as functional, cell-based.

As to `COc1cccc2c1C(=O)c1c(O)c3c(c(O)c1C2=O)C[C@@](O)(C(=O)CO)C[C@@H]3O[C@H]1C[C@H](N)[C@H](O)[C@H](C)O1` [DOXORUBICIN], the IC50 (as a rule, the midpoint of a concentration-inhibition curve) in test [1] was 24.3 µM. As to `COc1ccc(N2CCN(C(=O)Cc3ccc(CCCN4Cc5cc6ccccc6nc5C4=O)cc3)CC2)cc1`, the IC50 in test [1] came out at 68.8 µM; in test [2] it was 48.9 µM. For the molecule `O=C(Cc1ccc(/C=C/CN2Cc3cc4ccccc4nc3C2=O)cc1)NCCO`, the IC50 in test [2] was 42.1 µM. As to `O=C(Cc1ccc(/C=C/CN2Cc3cc4ccccc4nc3C2=O)cc1)N1CCN(c2ccc([N+](=O)[O-])cc2)CC1`, the IC50 in test [1] is 43.8 µM; in test [2], 56.2 µM. As to `O=C(Cc1ccc(/C=C/CN2Cc3cc4ccccc4nc3C2=O)cc1)N1CCOCC1`, the IC50 in test [1] came out at 46.2 µM; in test [2], 8.62 µM. Regarding `COc1ccc(N2CCN(C(=O)Cc3ccc(/C=C/CN4Cc5cc6ccccc6nc5C4=O)cc3)CC2)cc1`, the IC50 in test [2] amounted to 56.3 µM. As to `O=C(O)Cc1ccc(/C=C/CN2Cc3cc4ccccc4nc3C2=O)cc1`, the IC50 in test [2] was 56.6 µM. Turning to `O=c1c2ccccc2nc2n1Cc1cc3ccccc3nc1-2` [LUOTONIN A], the IC50 in test [1] amounted to 61.2 µM; in test [2], 61.1 µM.

As for `O=C(Cc1ccc(CCCN2Cc3cc4ccccc4nc3C2=O)cc1)N1CCN(c2ccc([N+](=O)[O-])cc2)CC1`, the IC50 in test [2] amounted to 40.2 µM.

`O=C(Cc1ccc(/C=C/CN2Cc3cc4ccccc4nc3C2=O)cc1)N1CCCCC1`: the values for the IC50 in test [1] and in test [2] were 67.8 µM and 38.3 µM, respectively.

As to `O=C(Cc1ccc(/C=C/CN2Cc3cc4ccccc4nc3C2=O)cc1)N1CCN(c2ccccc2)CC1`, the IC50 in test [1] was determined as 53.5 µM; in test [2] it was 51.9 µM. In the case of `O=C(Cc1ccc(CCCN2Cc3cc4ccccc4nc3C2=O)cc1)N1CCN(c2ccccc2)CC1`, the results for the IC50 in test [1] and in test [2] were 65.4 µM and 42 µM, respectively. For `O=C(Cc1ccc(/C=C/CN2Cc3cc4ccccc4nc3C2=O)cc1)N1CCCC1`, the IC50 in test [2] came out at 57.2 µM. On to `CC(C)N(C(=O)Cc1ccc(/C=C/CN2Cc3cc4ccccc4nc3C2=O)cc1)C(C)C`, for which the results for the 50% inhibitory concentration (IC50) in test [1] and in test [2] were 70.1 µM and 43.2 µM, respectively.
